Test [1] has as its system BA/F3 (insSVD) cells. Description: Ba/F3 cell survival assay (Cell Titer-Glo), EGFR-insSVD. It counts as cell-based. Particulars: Mus musculus, BaF3, 48 h, without IL-3, with EGF. As to the method: 293T cells from ATCC were transfected with pBABEpuro expression constructs for WT EGFR or EGFR-insSVD, or EGFR-insSVD T790M, and pCL-Eco packaging vector using Fugene-6 transfection reagent from Promega. Plates were incubated at 37° C. for 48 h. Retrovirus was harvested by filtering the media supernatant through a 0.45 μm filter.
Ba/F3 cells purchased from DSMZ were grown in RPMI+10% FBS+10 ng/mL IL-3 and infected with filtered retroviral supernatant at a 1:2 dilution. Polybrene was added to a concentration of 8 μg/mL, plates were spun for 90 min, and incubated for 16 h at 37° C. 2 μg/mL puromycin was added to the infected cells 24 h after infection and cells were continually grown in the presence of puromycin and 10 ng/mL IL-3. Following stably expressing Ba/F3 cell lines were generated: Ba/F3-EGFR-WT, Ba/F3-EGFR-insSVD, Ba/F3-EGFR-insSVD T790M, (Ba/F3-vector-control).
For cell survival assays, Ba/F3 cells were grown to a density of 1-2 million cells per mL, spun down and resuspended in media without IL-3, and replated at a concentration of 200,000-500,000 cells per mL. The cells ectopically expressing WT EGFR, EGFR-insSVD, or EGFR-insSVD T790M were plated with 10 ng/mL Millipore Culture grade EGF. The cells ectopically expressing pBABEpuro empty vector were plated with 10 ng/mL IL-3.
2 days later, cells were plated in 50 μL in a 384 well plate at a concentration of 4000 cells per well for cells assayed in the absence of IL-3 and 2000 cells per well for cells assayed in the presence of IL-3. 100 nL of compound was added to each well using a 100 nL pin head, and plates were incubated at 37° C. for 48 h.
Cell viability was measured by adding 20 μL of Cell Titer-Glo Luminescent Cell Viability Reagent diluted 1:3 in PBS. Plates were sealed with Perkin Elmer Top-Seal, inverted several times to mix, and immediately centrifuged at 1000 rpm for 2 min. Plates were incubated in low light conditions for 8-10 min and luminescence was measured.

For test [2], the target named is mutEGFR (D770_N771insSVD) (Homo sapiens, UniProt P00533, INS767SVD). Nature of the test: Exon20-mutant-EGFR (D770_N771insSVD) TR-FRET kinase assay. It counts as biochemical. Particulars: 2 mM ATP, 15 min preincubation. The text has this:
Inhibitory activity of compounds of the present invention against an Epidermal Growth Factor Receptor (EGFR) with an insertion of the amino acids sequence SVD between D770 and N771 (SEQ ID No. 5) was quantified employing the TR-FRET based kinase activity assay as described in the following paragraphs.
A recombinant fusion protein of N-terminal Glutathion-S-Transferase (GST) and a fragment of human EGFR variant (amino acids R669 to A1210 with insertion of the amino acids sequence SVD between D770 and N771 (SEQ ID No. 5) (“EGFR ins SVD”), expressed in Sf9 insect cells and purified via affinity chromatography using Glutathion Sepharose as described above, was used as a kinase. As substrate for the kinase reaction the biotinylated peptide biotin-Ahx-AEEEEYFELVAKKK (C-terminus in amide form) (SEQ ID No. 6) was used which can be purchased e.g. form the company Biosynthan GmbH (Berlin-Buch, Germany).
For the assay 50 nl of a 100-fold concentrated solution of the test compound in DMSO was pipetted into either a black low volume 384 well microtiter plate or a black 1536 well microtiter plate (both Greiner Bio-One, Frickenhausen, Germany), 2 μl of a solution of EGFR in aqueous assay buffer [50 mM Hepes pH 7.0, 10 mM MgCl2, 1 mM dithiothreitol, 0.5 mM EGTA, 0.3 mM activated sodium ortho-vanadate, 0.005% (w/v) bovine serum albumin, 0.005% (v/v) Tween-20] were added and the mixture was incubated for 15 min at 22° C. to allow pre binding of the test compounds to the enzyme before the start of the kinase reaction. […] The concentration of EGFR was adjusted depending of the activity of the enzyme lot and was chosen appropriate to have the assay in the linear range, typical concentration was 15 pg/μl. The reaction was stopped by the addition of 3 μl of a solution of HTRF detection reagents (83.3 nM streptavidine-XL665 [Cisbio Bioassays, Codolet, France] and 1.67 nM PT66-Tb-Cryptate, a terbium-cryptate labelled anti-phospho-tyrosine antibody from Cisbio Bioassays [instead of the PT66 Tb cryptate PT66 Eu Chelate from Perkin Elmer can also be used]) in an aqueous EDTA-solution (133.3 mM EDTA, 0.2% (w/v) bovine serum albumin in 50 mM HEPES pH 7.5).
The resulting mixture was incubated 1 h at 22° C. to allow the binding of the biotinylated phosphorylated peptide to the streptavidine-XL665 and the PT66-Tb-Cryptate. Subsequently, the amount of phosphorylated substrate was evaluated by measurement of the resonance energy transfer from the PT66-Tb-Cryptate to the streptavidine-XL665. Therefore, the fluorescence emissions at 620 nm and 665 nm after excitation at 337 nm were measured in a HTRF reader, e.g. a Pherastar (BMG Labtechnologies, Offenburg, Germany) or a Viewlux (Perkin-Elmer). The ratio of the emissions at 665 nm and at […] was taken as the measure for the amount of phosphorylated substrate. The data were normalised (enzyme reaction without inhibitor=0% inhibition, all other assay components but no enzyme=100% inhibition).
(In general: Time-resolved FRET reads energy transfer from a long-lived donor to a nearby acceptor.)

Test [3] has as its target mutEGFR (D770_N771insNPG, T790). Nature of the test: mutEGFR (D770_N771insNPG, T790) kinase assay. The format is biochemical, human.

Sequence of mutEGFR (D770_N771insSVD) (P00533 with tags, fused parts or gaps INS767SVD limits assumed): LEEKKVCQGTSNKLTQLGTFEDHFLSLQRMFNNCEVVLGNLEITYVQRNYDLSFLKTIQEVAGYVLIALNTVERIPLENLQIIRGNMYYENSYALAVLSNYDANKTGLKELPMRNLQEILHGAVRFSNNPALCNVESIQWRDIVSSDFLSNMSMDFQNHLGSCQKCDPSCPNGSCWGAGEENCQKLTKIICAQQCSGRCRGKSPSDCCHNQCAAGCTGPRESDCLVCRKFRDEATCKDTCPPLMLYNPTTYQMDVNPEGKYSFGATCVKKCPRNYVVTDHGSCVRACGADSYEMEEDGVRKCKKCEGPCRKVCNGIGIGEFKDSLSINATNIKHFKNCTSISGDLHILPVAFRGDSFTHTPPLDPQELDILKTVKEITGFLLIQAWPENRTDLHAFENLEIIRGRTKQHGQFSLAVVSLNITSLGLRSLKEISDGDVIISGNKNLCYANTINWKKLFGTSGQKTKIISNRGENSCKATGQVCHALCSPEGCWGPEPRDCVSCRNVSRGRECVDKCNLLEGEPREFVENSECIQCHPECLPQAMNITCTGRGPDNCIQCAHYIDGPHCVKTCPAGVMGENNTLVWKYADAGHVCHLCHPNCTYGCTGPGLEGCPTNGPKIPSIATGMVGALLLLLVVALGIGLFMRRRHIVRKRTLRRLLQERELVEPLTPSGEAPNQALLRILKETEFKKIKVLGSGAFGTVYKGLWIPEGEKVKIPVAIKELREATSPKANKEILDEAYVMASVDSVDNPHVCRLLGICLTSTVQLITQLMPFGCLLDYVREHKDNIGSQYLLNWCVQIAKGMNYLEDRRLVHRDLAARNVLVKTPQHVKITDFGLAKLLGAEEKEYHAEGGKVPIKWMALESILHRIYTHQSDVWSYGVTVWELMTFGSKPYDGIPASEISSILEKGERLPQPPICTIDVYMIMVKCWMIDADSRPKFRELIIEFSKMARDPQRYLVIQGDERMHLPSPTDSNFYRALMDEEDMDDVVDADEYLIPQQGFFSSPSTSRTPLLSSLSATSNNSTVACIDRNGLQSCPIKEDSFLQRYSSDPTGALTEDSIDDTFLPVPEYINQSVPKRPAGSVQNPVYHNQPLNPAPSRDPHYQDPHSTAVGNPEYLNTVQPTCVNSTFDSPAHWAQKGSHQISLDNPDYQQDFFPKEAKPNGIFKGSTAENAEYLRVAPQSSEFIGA
Sequence of mutEGFR (D770_N771insNPG, T790) (P00533 with tags, fused parts or gaps INS770NPG limits assumed): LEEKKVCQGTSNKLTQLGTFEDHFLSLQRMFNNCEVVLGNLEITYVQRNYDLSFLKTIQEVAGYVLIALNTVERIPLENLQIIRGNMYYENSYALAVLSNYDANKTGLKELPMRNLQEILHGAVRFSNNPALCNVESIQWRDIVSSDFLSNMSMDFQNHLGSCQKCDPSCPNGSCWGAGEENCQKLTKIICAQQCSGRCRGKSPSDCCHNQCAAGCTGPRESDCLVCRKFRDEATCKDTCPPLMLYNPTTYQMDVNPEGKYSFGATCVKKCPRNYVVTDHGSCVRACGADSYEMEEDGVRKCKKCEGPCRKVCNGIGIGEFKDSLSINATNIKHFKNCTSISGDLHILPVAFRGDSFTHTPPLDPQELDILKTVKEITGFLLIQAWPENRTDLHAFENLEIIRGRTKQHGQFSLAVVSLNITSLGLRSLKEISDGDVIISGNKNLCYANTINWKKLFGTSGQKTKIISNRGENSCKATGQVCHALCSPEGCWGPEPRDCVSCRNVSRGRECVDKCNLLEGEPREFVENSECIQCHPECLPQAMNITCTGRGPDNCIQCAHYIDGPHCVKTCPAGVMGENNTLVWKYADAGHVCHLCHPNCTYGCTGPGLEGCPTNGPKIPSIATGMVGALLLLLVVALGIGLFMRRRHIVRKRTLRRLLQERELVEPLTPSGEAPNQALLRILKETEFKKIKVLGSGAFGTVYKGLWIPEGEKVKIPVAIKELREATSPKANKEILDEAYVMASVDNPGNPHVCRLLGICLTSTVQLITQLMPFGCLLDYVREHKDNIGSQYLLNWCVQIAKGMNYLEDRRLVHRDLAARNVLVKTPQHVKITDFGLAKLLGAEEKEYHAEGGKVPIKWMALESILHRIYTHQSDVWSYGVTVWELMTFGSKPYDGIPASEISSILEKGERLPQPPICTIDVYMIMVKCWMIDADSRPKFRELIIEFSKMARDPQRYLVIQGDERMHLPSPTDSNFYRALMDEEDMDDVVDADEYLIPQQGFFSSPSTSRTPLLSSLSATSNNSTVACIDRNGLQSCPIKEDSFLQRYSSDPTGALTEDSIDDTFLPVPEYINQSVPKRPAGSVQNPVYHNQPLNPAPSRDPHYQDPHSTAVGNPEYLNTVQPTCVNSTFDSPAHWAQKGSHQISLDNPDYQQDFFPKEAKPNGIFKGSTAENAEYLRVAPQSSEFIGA

The IC50 is the concentration needed to halve the response being measured. A low value points to greater potency. In the case of `C=CS(=O)(=O)N(C)CCOc1cnccc1-c1[nH]c2cccnc2c1-c1cc(Cl)ccc1Cl` [Example 71, N-[2-({4-[3-(2,5-dichlorophenyl)-1H-pyrrolo[3,2-b]pyridin-2-yl]pyridin-3-yl}oxy)ethyl]-N-methylethenesulfonamide], the results for the IC50 in test [1], in test [2] and in test [3] were 404 nM, 5.37 nM and 8.59 nM, respectively.
The matching figures for `C=CC(=O)N(C)CCOc1cnccc1-c1[nH]c2cccnc2c1-c1cc(C)cc(F)c1` [Example 50, N-[2-({4-[3-(3-fluoro-5-methylphenyl)-1H-pyrrolo[3,2-b]pyridin-2-yl]pyridin-3-yl}oxy)ethyl]-N-methylprop-2-enamide]: 1770 nM, 63.7 nM and 131 nM.
The matching figures for `C=CS(=O)(=O)N1CC[C@@]1(C)COc1cnccc1-c1[nH]c2cccnc2c1-c1ccccc1` [Example 146, 2-(3-{[(2S)-1-(ethenesulfonyl)-2-methylazetidin-2-yl]methoxy}pyridin-4-yl)-3-phenyl-1H-pyrrolo[3,2-b]pyridine]: 1240 nM, 32.7 nM and 265 nM.
`C=CS(=O)(=O)N(C)CCOc1cnccc1-c1[nH]c2cccnc2c1-c1cc(F)cc(F)c1` [Example 68, N-[2-({4-[3-(3,5-difluorophenyl)-1H-pyrrolo[3,2-b]pyridin-2-yl]pyridin-3-yl}oxy)ethyl]-N-methylethenesulfonamide]: the IC50 was 296 nM in test [1], 3.64 nM in test [2] and 8.76 nM in test [3].
`C=CS(=O)(=O)N(C)CCOc1cnccc1-c1[nH]c2cccnc2c1-c1ccc2ccsc2c1` [Example 62, N-[2-({4-[3-(1-benzothiophen-6-yl)-1H-pyrrolo[3,2-b]pyridin-2-yl]pyridin-3-yl}oxy)ethyl]-N-methylethenesulfonamide]: the IC50 in test [1] was 326 nM; in test [2] it was 1.14 nM; in test [3], 3.3 nM.
The matching figures for `C=CS(=O)(=O)N1CCC(Oc2cnccc2-c2[nH]c3cccnc3c2-c2cccc(Cl)c2)C1` (racemic) [Example 121, 3-(3-chlorophenyl)-2-(3-{[(3RS)-1-(ethenesulfonyl)pyrrolidin-3-yl]oxy}pyridin-4-yl)-1H-pyrrolo[3,2-b]pyridine]: 497 nM, 6.91 nM and 18 nM.
`C#CC(=O)N1CC[C@@H](Oc2cnccc2-c2[nH]c3cccnc3c2-c2cc(Cl)ccc2F)C1` [Example 128, 1-[(3R)-3-({4-[3-(5-chloro-2-fluorophenyl)-1H-pyrrolo[3,2-b]pyridin-2-yl]pyridin-3-yl}oxy)pyrrolidin-1-yl]prop-2-yn-1-one]: the figures for the IC50 in test [1], in test [2] and in test [3] were 765 nM, 63 nM and 208 nM, respectively.
Regarding `O=C(/C=C/CN1CCCC1)N1CCC[C@H]1COc1cnccc1-c1[nH]c2cccnc2c1-c1ccccc1` [Example 99, (2E)-1-[(2S)-2-({[4-(3-phenyl-1H-pyrrolo[3,2-b]pyridin-2-yl)pyridin-3-yl]oxy}methyl)pyrrolidin-1-yl]-4-(pyrrolidin-1-yl)but-2-en-1-one], the IC50 in test [1] stood at 115 nM; in test [2] it was 2.32 nM; in test [3] it was 10.8 nM.
The matching figures for `C=CS(=O)(=O)N(C)CCOc1cnccc1-c1[nH]c2cccnc2c1-c1cccc(C(C)C)c1` [Example 70, N-methyl-N-{2-[(4-{3-[3-(propan-2-yl)phenyl]-1H-pyrrolo[3,2-b]pyridin-2-yl}pyridin-3-yl)oxy]ethyl}ethenesulfonamide]: 749 nM, 5.33 nM and 46.6 nM.
For the compound `C=CC(=O)N1CCCC[C@H]1COc1cnccc1-c1[nH]c2cccnc2c1-c1ccccc1` [Example 130, 1-[(2S)-2-({[4-(3-phenyl-1H-pyrrolo[3,2-b]pyridin-2-yl)pyridin-3-yl]oxy}methyl)piperidin-1-yl]prop-2-en-1-one], the 50% inhibitory concentration (IC50) in test [1] worked out at 1620 nM; in test [2], 337 nM.

Values taken from patent publication US20260035365A1, “1H-PYRROLO[3,2-B]PYRIDINE DERIVATIVES AS IRREVERSIBLE INHIBITORS OF MUTANT EGFR FOR THE TREATMENT OF CANCER” (Bayer Aktiengesellschaft, priority 2022, published 2026).
